Measurements reported in ChEMBL document CHEMBL1201862, “PubChem BioAssay data set” (2004).
Calls of active or inactive are those of the source.

Columns and labels:
Large T antigen = Large T antigen (Simian virus 40, UniProt P03070); type: functional, Betapolyomavirus macacae;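 also: Confirmatory-stage PubChem screen for compounds that inhibit SV40 T antigen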
[1] = Luminescence Cell-Based Dose Confirmation HTS to Identify Inhibitors of Platelet Dense Granule Release. [Related pubchem assays: 1663 (Primary HTS), 1678 (Summary of Project)]; type: functional
[2] = target: Luciferin 4-monooxygenase (Photinus pyralis, UniProt P08659); experiment: firefly luciferase enzyme inhibitors, dose response, biochemical, luminescence (AID 1891)
H9c2 = experiment: cells; type: functional, cell-based; details: Rattus norvegicus, H9c2, Myocardium;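 also: confirmatory concentration-response retest of ultra-high-throughput screening hits for modulation of myocardial damage; cell death induced by hydrogen peroxide oxidative stress; compound pretreatment for 60 min then peroxide exposure for 2 h; potency is for protecting the cells against peroxide damage rather than for killing them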
cells = type: functional
[3] = target: T1, RNA-binding protein pos-1 (Caenorhabditis elegans, UniProt G5EF15); experiment: inhibitors of POS-1/mex-3 RNA binding, dose response, biochemical, fluorescence polarization (AID 1964);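 also: purified POS-1 fused to maltose binding protein made in E. coli; potency of compounds blocking POS-1 binding to fluorescent RNA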
T1 sequence (G5EF15 whole entry): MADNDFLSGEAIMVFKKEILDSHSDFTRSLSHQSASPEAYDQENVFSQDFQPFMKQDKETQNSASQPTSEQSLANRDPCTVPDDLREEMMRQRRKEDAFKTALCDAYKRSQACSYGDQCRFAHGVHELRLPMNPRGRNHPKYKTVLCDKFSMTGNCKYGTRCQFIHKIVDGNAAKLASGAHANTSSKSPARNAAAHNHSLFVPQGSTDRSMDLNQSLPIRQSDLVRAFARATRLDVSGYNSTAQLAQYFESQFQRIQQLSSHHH

[4] = target: T2, Zinc finger protein mex-5 (Caenorhabditis elegans, UniProt Q9XUB2); experiment: MEX-5/TCR-2 RNA interaction inhibitors, dose response, biochemical, C. elegans, fluorescence polarization (AID 1960)
T2 sequence (Q9XUB2 whole entry): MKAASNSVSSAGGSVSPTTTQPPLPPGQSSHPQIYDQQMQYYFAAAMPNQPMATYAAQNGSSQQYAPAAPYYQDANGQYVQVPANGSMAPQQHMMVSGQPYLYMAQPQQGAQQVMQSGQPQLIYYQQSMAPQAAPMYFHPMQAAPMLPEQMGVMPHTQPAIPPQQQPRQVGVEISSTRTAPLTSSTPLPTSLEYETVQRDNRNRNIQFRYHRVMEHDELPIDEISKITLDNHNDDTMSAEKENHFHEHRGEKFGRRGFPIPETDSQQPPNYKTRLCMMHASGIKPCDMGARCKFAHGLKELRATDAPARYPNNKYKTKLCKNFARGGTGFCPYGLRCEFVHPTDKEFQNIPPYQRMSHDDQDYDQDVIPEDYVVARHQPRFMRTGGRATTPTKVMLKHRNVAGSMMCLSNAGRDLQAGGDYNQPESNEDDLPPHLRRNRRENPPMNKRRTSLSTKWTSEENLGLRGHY

[5] = target: T3, Polyadenylate-binding protein 1 (Homo sapiens, UniProt P11940); experiment: PABP1 MLLE–PAM2 binding inhibitor potency, dose response, biochemical, fluorescence polarization, FITC-PAM2 peptide (AID 602259); type: functional; details: read-out: IC50_Mean
[6] = target: T3, Polyadenylate-binding protein 1; experiment: PABP1 MLLE–PAM2 interaction inhibitors, dose response, miRNA deadenylation inhibitor project, biochemical, fluorescence polarization, Cy5-PAM2 peptide, secondary (AID 602260); type: functional; details: read-out: IC50_Mean
[7] = Luminescence Cell-Based Dose Retest to Confirm Inhibitors of Cancer Stem Cells. [Related pubchem assays (depositor defined):AID2717, AID2721]; type: functional; details: Homo sapiens
[8] = NIH-3T3 fibroblast cytotoxicity, dose response, cytotoxicity control, cell-based, fluorescence, Alamar Blue, secondary assay (AID 2327); type: functional;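 also: NIH-3T3 mouse fibroblasts cultured with fluconazole at 8 µg/mL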
[9] = C. albicans growth with fluconazole, confirmation, fluorescence, retest (AID 2467); type: functional, cell-based
[10] = system: Streptococcus sp. 'group A'; experiment: growth inhibition of control SK(-) GAS strain, dose response, counter-screen for streptokinase expression inhibitor project, luminescence, kanamycin, BacTiterGlo, confirmation (AID 1900); type: functional, organism-based
Streptokinase A = target: T4, Streptokinase A (Streptococcus pyogenes serotype M1, UniProt P10520); experiment: S. pyogenes streptokinase expression inhibitors, potency, dose response, plasminogen activation absorbance, OD405 (AID 1914); type: functional, Streptococcus pyogenes M1 GAS;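 also: secreted streptokinase activity via plasminogen activation per viability signal from cell pellet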
T4 sequence (P10520 whole entry): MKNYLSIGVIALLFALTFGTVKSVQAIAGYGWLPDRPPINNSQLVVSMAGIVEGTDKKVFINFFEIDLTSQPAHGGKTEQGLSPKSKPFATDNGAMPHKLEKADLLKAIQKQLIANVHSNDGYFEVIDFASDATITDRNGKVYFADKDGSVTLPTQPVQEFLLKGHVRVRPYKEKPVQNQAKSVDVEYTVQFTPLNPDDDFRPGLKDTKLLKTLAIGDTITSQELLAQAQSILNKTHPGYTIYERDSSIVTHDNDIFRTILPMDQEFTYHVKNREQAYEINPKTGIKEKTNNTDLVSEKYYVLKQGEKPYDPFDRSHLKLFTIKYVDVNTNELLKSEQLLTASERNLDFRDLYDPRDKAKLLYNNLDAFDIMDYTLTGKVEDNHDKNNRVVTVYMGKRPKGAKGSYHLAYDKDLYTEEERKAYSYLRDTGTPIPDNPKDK

Streptococcus = experiment: Group A Streptococcus viability loss, dose response, counter-screen for streptokinase expression inhibitor project, luminescence, BacTiterGlo (AID 1915); type: functional, organism-based;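 also: potency for reduction of bacterial viability or growth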
[11] = growth suppression of PTEN-null colon cells, dose response, cell-based, HCT116 PTEN knockout (AID 1047); type: functional;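 also: HCT116 colon tumor cells with PTEN knocked out; cells exposed to compound for 60 hours before readout; potency for loss of cell viability measured by luminescence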
[12] = growth suppression of beta-catenin-knockout colon cells, dose response, cell-based, HCT116, human colon tumor (AID 1045); type: functional;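 also: HCT116 colon tumor cells with beta catenin knocked out; cells exposed to compound for 60 hours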
[13] = target: T5, Rac GTPase-activating protein 1 (Homo sapiens, UniProt Q9H0H5); experiment: MgcRacGAP GTPase-activating activity inhibitors, confirmation, biochemical, ADP Hunter fluorescence, primary and confirmatory (AID 624330); type: functional
T5 sequence (Q9H0H5 whole entry): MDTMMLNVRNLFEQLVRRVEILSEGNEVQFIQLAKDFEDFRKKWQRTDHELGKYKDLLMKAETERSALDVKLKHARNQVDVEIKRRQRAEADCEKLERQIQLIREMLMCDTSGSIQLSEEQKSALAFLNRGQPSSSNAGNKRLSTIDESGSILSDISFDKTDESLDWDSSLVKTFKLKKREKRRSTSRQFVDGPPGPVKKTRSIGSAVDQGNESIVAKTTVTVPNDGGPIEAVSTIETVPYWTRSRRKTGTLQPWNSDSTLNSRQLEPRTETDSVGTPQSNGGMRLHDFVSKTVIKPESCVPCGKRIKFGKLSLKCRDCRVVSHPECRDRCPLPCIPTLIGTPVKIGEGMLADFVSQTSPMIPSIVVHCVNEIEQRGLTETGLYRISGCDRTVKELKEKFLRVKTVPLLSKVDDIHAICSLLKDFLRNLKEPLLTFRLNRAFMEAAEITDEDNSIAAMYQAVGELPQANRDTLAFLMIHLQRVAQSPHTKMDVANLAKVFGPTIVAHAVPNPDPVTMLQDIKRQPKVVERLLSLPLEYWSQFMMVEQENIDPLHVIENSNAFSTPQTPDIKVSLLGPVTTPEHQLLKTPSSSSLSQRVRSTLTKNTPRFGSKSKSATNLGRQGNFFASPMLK
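For AC50 in this document: cells exposed to compound for roughly 70 hours or longer before luminescence read.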

Chain of Large T antigen (P03070 whole entry): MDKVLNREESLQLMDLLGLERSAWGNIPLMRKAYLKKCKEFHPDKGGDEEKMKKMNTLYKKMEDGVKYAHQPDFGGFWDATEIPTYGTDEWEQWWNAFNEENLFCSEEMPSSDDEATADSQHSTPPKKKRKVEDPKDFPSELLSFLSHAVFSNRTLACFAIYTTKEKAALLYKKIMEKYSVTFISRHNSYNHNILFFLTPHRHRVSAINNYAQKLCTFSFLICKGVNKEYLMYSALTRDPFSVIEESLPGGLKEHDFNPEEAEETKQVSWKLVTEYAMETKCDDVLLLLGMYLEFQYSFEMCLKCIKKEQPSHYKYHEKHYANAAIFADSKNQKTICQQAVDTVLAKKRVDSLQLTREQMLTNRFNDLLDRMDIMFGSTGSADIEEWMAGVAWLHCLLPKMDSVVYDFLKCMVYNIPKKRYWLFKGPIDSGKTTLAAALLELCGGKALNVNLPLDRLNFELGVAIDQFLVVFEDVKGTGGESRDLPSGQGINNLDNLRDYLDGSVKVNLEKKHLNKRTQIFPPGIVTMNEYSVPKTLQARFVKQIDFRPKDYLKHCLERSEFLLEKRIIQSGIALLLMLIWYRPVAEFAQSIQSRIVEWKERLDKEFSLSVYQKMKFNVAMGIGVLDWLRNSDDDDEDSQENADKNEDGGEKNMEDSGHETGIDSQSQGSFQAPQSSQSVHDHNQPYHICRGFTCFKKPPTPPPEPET
Chain of Luciferin 4-monooxygenase (P08659 whole entry): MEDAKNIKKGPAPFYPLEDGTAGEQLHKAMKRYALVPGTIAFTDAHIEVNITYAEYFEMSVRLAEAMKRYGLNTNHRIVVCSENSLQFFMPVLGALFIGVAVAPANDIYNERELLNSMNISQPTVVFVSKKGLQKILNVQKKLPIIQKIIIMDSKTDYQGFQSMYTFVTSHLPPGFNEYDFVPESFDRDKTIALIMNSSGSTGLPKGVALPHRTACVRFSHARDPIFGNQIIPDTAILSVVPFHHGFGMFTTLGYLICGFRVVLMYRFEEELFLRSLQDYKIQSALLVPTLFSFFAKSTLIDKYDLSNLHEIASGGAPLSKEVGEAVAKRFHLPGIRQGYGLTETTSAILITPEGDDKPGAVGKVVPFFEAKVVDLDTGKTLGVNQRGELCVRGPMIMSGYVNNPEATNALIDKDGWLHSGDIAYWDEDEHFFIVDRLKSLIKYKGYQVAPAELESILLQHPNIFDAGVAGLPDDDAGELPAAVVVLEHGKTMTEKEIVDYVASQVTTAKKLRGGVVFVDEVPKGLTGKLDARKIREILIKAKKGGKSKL
T3 sequence (P11940 whole entry): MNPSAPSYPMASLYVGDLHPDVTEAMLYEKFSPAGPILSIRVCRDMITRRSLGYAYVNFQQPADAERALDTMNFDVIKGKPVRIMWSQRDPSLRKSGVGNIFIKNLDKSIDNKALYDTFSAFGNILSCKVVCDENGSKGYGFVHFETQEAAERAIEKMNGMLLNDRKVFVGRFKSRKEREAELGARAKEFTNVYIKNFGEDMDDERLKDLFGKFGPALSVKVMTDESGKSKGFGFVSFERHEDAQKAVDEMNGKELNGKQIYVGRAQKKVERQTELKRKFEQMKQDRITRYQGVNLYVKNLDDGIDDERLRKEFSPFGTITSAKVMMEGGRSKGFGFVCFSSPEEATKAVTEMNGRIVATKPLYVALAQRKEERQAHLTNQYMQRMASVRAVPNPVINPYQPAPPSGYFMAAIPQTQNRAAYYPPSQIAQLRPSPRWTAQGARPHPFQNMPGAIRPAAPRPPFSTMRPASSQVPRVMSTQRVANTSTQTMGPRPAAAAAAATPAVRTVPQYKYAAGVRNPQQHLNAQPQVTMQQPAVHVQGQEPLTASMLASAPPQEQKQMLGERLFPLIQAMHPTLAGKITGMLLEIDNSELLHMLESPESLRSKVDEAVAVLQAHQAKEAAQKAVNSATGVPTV

O=C(c1ccco1)N1CCN(C(=S)Nc2ccc(F)c(Cl)c2)CC1
IC50 (Large T antigen): > 100 µM (active)

CCC(C)SCc1nc2ccccc2[nH]1 (configuration not stated)
EC50 [1]: > 112 µM (not active) | EC50 [2]: > 112 µM (not active)

O=C(Nc1ccccc1F)c1cnc(O)nc1O
EC50 [1]: > 112 µM (not active) | EC50 [2]: > 112 µM (not active)

CN(C)c1ccc(N2CC(C)(C)C2=O)cc1
IC50 (Large T antigen): 4.39 µM (active)

Cc1ccccc1C(C(=O)NCc1ccccc1)N(Cc1ccco1)C(=O)c1ccccn1 (configuration not stated)
IC50 (H9c2): > 79 µM (inactive)

O=C1NC(=S)N=C1c1c(O)[nH]c2ccccc12
EC50 [1]: > 112 µM (not active) | EC50 [2]: > 112 µM (not active)

COc1cccc(OCC(=O)NNC(=O)C(=O)Nc2cccc(C)c2)c1
IC50 (cells): 20.4 µM (active)

COc1ccc(CCN2CC(C(=O)NCCc3ccccc3C(F)(F)F)CCC2=O)cc1 (configuration not stated)
EC50 [1]: > 112 µM (not active) | EC50 [2]: > 112 µM (not active)

CCn1c(SCC(=O)N2CCN(c3ccccc3)CC2)nc2c(c1=O)SC(C)C2 (configuration not stated)
IC50 (H9c2): 11.9 µM (active)

CCc1cccc(NC(=O)CN(C)S(=O)(=O)c2c[nH]cn2)c1
EC50 [1]: > 112 µM (not active) | EC50 [2]: > 112 µM (not active)

N#CC1=C(N)C2=C(N3CCCCC3)CCCC2C1(C#N)C#N (configuration not stated)
EC50 [3]: 89.4 µM (active) | IC50 (Large T antigen): 9.99 µM (active) | EC50 [4]: 77.1 µM (active) | IC50 [5]: > 66 µM (inactive) | IC50 [6]: > 66 µM (inactive)

O=C(c1ccc(S(=O)(=O)N2CCOCC2)cc1)N1CCN(c2ccc(F)cc2)CC1
EC50 [1]: 93.8 µM (active) | EC50 [2]: > 112 µM (not active)

CC(C)(C)NC(=O)COC(=O)c1c2c(nc3ccccc13)CCC2
IC50 (H9c2): 6.79 µM (active)

CN1C2CCC1CC(NC(=O)CSc1ccc(Cl)cc1)C2 (configuration not stated)
EC50 [1]: > 112 µM (not active) | EC50 [2]: > 112 µM (not active)

Cc1ccc2c(c1)c1ncn(CCC3=CCCCC3)c(=O)c1n2C
AC50 [7]: 1 µM (active)

Cc1ccc(SCC(=O)Nc2ccc3c(c2)C(=O)N(C)C3=O)cc1
EC50 [8]: > 150 µM (inactive) | EC50 [9]: > 38 µM (not active)

Cc1ccc(OCCCCc2c(C)n[nH]c2C)cc1
EC50 [10]: 16.3 µM (active) | EC50 (Streptokinase A): > 150 µM (not active) | EC50 (Streptococcus): > 150 µM (not active) | IC50 (cells): 25.6 µM (active)

Cc1ccc(C)c(NC(=O)C(Sc2ncnc3ccccc23)c2ccccc2)c1 (configuration not stated)
EC50 [11]: 111 µM (active) | EC50 [12]: 126 µM (active) | IC50 (H9c2): 29.1 µM (active)

Cc1cc(C)c2c(c1)cc(C)c1nnc(SCC(=O)Nc3ccccc3N3CCOCC3)n12
EC50 [1]: > 112 µM (not active) | EC50 [2]: > 112 µM (not active)

CCCNC(=O)NC(=O)COc1ccc(-c2ccc(C#N)cc2)cc1
IC50 (cells): 1.12 µM (active)

Cc1ccc(NC(=O)c2cc(-c3cccs3)nc3ccccc23)nc1
IC50 (H9c2): > 79 µM (inactive)

Cc1cc(OCC(=O)Nc2ccncc2)ccc1Br
IC50 (cells): > 50 µM (active)

COC(=O)CC1SC(=O)NC1=Nc1ccc(O)cc1 (configuration not stated)
IC50 (Large T antigen): 16.8 µM (active) | IC50 [13]: 52.9 µM (active)

COc1ccc(N/C=C/C(=O)c2ccccc2)cc1
EC50 [1]: < 0.701 µM (active) | EC50 [2]: 0.863 µM (active)

COc1ccc(Cl)cc1NC(=O)CN(C)C(=O)CCc1nc(O)c2ccccc2n1
IC50 (H9c2): > 79 µM (inactive)

O=C(CCn1c(=O)oc2cc(Cl)ccc21)Nc1ccc(O)cc1
IC50 (Large T antigen): 25.2 µM (active)

O=C(Cc1ccccc1)Nc1cccc(NC(=O)c2ccccc2)c1
AC50 [7]: 7.49 µM (active)

COc1ccc(NC(=O)c2ccc(-c3ccc([N+](=O)[O-])cc3)o2)cc1OC
IC50 (cells): > 50 µM (active)

COc1ccc(CNC(=O)c2ccccc2NC(=O)C2=CSCCO2)c(OC)c1
EC50 [1]: 15.7 µM (active) | EC50 [2]: > 112 µM (not active)

Nc1ccc(Nc2nc3ccccc3[nH]2)cc1
IC50 (Large T antigen): 7.8 µM (active)

O=C(NC(Cc1ccccc1)C(=O)NCc1ccccn1)c1ccco1 (configuration not stated)
EC50 [8]: > 150 µM (inactive) | EC50 [9]: > 38 µM (not active)

CC(CCc1ccccc1)NC(=O)CN1CCN(c2ccc(O)cc2)CC1 (configuration not stated)
EC50 [8]: 36.2 µM (active)

CC(=O)c1ccc(N2CCN(C(=O)c3cc(-c4cccnc4)nc4ccc(Br)cc34)CC2)cc1
IC50 (H9c2): > 79 µM (inactive)

Cc1ccc(-c2nnc(O)c3ccccc23)cc1S(=O)(=O)NC(C)(C)C
IC50 (H9c2): > 79 µM (inactive)

O=c1c2ccccc2nc(/C=C/c2ccc(Br)cc2)n1CCO
AC50 [7]: 10.5 µM (active)

O=C(COc1ccccc1Cl)NNC(=O)Cn1[nH]c(=O)c2ccccc2c1=O
IC50 (H9c2): > 79 µM (inactive)

COC(=O)Cc1cc(=O)n(-c2nc3ccccc3s2)[nH]1
EC50 [8]: > 150 µM (inactive) | EC50 [9]: 21.7 µM (active)

COc1cc(/C(C)=N/NC(=O)CSc2nc3ccccc3[nH]2)ccc1O
IC50 (Large T antigen): 22.9 µM (active)

C/C(=N\NC(=O)CCC(=O)Nc1ccc(C)c(C)c1)C1CC1
EC50 [8]: > 150 µM (inactive) | EC50 [9]: > 38 µM (not active)

COc1cc(/C=N/NC(=O)c2cccc([N+](=O)[O-])c2)ccc1O
IC50 (Large T antigen): 5.73 µM (active) | IC50 [13]: 29 µM (active)

C/C(CC(=O)Nc1ccc(N(C)C)cc1)=N\NC(=O)c1ccc(Cl)cc1Cl
IC50 (Large T antigen): 9.26 µM (active)

Cc1ccc(NC(=O)CO/N=C/c2ccccc2C)c(C)c1
IC50 (cells): 50 µM (active)
